Assay results: the NIST ThermoML archive (doi:10.1021/je500395f)
± gives the expanded uncertainty stated by the source.

Conditions: Fluid (supercritical or subcritical phases), Coaxial cylinder method

`CCC` [propane] gave a thermal conductivity (371.05 K, 4555 kPa) of 0.06855 ± 0.0027 W/m/K, a thermal conductivity (371.05 K, 4560 kPa) of 0.06824 ± 0.0026 W/m/K and a thermal conductivity (371.05 K, 4590 kPa) of 0.06782 ± 0.0026 W/m/K. It also gave a thermal conductivity (371.05 K, 4715 kPa) of 0.06718 ± 0.0026 W/m/K, a thermal conductivity (371.05 K, 4720 kPa) of 0.06705 ± 0.0026 W/m/K and a thermal conductivity (371.05 K, 4840 kPa) of 0.06668 ± 0.0026 W/m/K. For the same molecule, the thermal conductivity (371.05 K, 5000 kPa) was 0.06707 ± 0.0026 W/m/K, the thermal conductivity (371.05 K, 5200 kPa) was 0.06747 ± 0.0026 W/m/K and the thermal conductivity (371.05 K, 5350 kPa) was 0.06773 ± 0.0026 W/m/K. The thermal conductivity (371.05 K, 5672 kPa) was 0.06829 ± 0.0027 W/m/K, the thermal conductivity (371.05 K, 6100 kPa) was 0.06917 ± 0.0027 W/m/K and the thermal conductivity (371.05 K, 6200 kPa) was 0.06927 ± 0.0027 W/m/K. The thermal conductivity (371.05 K, 6800 kPa) was 0.06996 ± 0.0027 W/m/K, the thermal conductivity (371.05 K, 7500 kPa) was 0.07147 ± 0.0027 W/m/K and the thermal conductivity (371.05 K, 8500 kPa) was 0.07339 ± 0.0028 W/m/K. It also gave a thermal conductivity (371.05 K, 8900 kPa) of 0.07424 ± 0.0028 W/m/K, a thermal conductivity (371.05 K, 9500 kPa) of 0.07498 ± 0.0029 W/m/K and a thermal conductivity (371.05 K, 11600 kPa) of 0.07756 ± 0.0029 W/m/K. The thermal conductivity (371.97 K, 3025 kPa) was 0.03301 ± 0.0015 W/m/K, the thermal conductivity (371.97 K, 3070 kPa) was 0.03313 ± 0.0015 W/m/K and the thermal conductivity (371.97 K, 3701 kPa) was 0.03655 ± 0.0016 W/m/K. It also gave a thermal conductivity (371.97 K, 3803 kPa) of 0.03783 ± 0.0017 W/m/K, a thermal conductivity (371.97 K, 4286 kPa) of 0.04983 ± 0.0021 W/m/K and a thermal conductivity (371.97 K, 4294 kPa) of 0.05055 ± 0.0021 W/m/K. It also gave a thermal conductivity (371.97 K, 4312 kPa) of 0.05267 ± 0.0023 W/m/K, a thermal conductivity (371.97 K, 4324 kPa) of 0.05459 ± 0.0024 W/m/K and a thermal conductivity (371.97 K, 4336 kPa) of 0.05724 ± 0.0027 W/m/K. It also gave a thermal conductivity (371.97 K, 4342 kPa) of 0.05915 ± 0.0028 W/m/K, a thermal conductivity (371.97 K, 4348 kPa) of 0.06124 ± 0.0028 W/m/K and a thermal conductivity (371.97 K, 4354 kPa) of 0.06361 ± 0.0027 W/m/K. The thermal conductivity (371.97 K, 4362 kPa) was 0.0676 ± 0.0028 W/m/K, the thermal conductivity (371.97 K, 4366 kPa) was 0.07025 ± 0.0029 W/m/K and the thermal conductivity (371.97 K, 4368 kPa) was 0.07149 ± 0.003 W/m/K. The thermal conductivity (371.97 K, 4370 kPa) was 0.07274 ± 0.003 W/m/K, the thermal conductivity (371.97 K, 4374 kPa) was 0.07488 ± 0.003 W/m/K and the thermal conductivity (371.97 K, 4378 kPa) was 0.07749 ± 0.0031 W/m/K. The thermal conductivity (371.97 K, 4380 kPa) was 0.07923 ± 0.0031 W/m/K, the thermal conductivity (371.97 K, 4382 kPa) was 0.07986 ± 0.0031 W/m/K and the thermal conductivity (371.97 K, 4384 kPa) was 0.08174 ± 0.0032 W/m/K. The thermal conductivity (371.97 K, 4386 kPa) was 0.08308 ± 0.0032 W/m/K, the thermal conductivity (371.97 K, 4388 kPa) was 0.08481 ± 0.0033 W/m/K and the thermal conductivity (371.97 K, 4390 kPa) was 0.08662 ± 0.0033 W/m/K. It also gave a thermal conductivity (371.97 K, 4392 kPa) of 0.08774 ± 0.0033 W/m/K, a thermal conductivity (371.97 K, 4394 kPa) of 0.08968 ± 0.0034 W/m/K and a thermal conductivity (371.97 K, 4396 kPa) of 0.09177 ± 0.0035 W/m/K. It also gave a thermal conductivity (371.97 K, 4398 kPa) of 0.09312 ± 0.0035 W/m/K, a thermal conductivity (371.97 K, 4400 kPa) of 0.09429 ± 0.0035 W/m/K and a thermal conductivity (371.97 K, 4402 kPa) of 0.09604 ± 0.0036 W/m/K. For the same molecule, the thermal conductivity (371.97 K, 4404 kPa) was 0.09739 ± 0.0036 W/m/K, the thermal conductivity (371.97 K, 4406 kPa) was 0.09807 ± 0.0036 W/m/K and the thermal conductivity (371.97 K, 4408 kPa) was 0.09854 ± 0.0037 W/m/K. It also gave a thermal conductivity (371.97 K, 4410 kPa) of 0.09918 ± 0.0037 W/m/K, a thermal conductivity (371.97 K, 4412 kPa) of 0.09961 ± 0.0037 W/m/K and a thermal conductivity (371.97 K, 4414 kPa) of 0.09999 ± 0.0037 W/m/K. It also gave a thermal conductivity (371.97 K, 4416 kPa) of 0.1001 ± 0.0037 W/m/K, a thermal conductivity (371.97 K, 4418 kPa) of 0.1001 ± 0.0037 W/m/K and a thermal conductivity (371.97 K, 4420 kPa) of 0.09965 ± 0.0037 W/m/K. For the same molecule, the thermal conductivity (371.97 K, 4425 kPa) was 0.09676 ± 0.0036 W/m/K, the thermal conductivity (371.97 K, 4430 kPa) was 0.09369 ± 0.0035 W/m/K and the thermal conductivity (371.97 K, 4435 kPa) was 0.09161 ± 0.0034 W/m/K. For the same molecule, the thermal conductivity (371.97 K, 4440 kPa) was 0.08782 ± 0.0033 W/m/K, the thermal conductivity (371.97 K, 4445 kPa) was 0.08423 ± 0.0032 W/m/K and the thermal conductivity (371.97 K, 4450 kPa) was 0.08092 ± 0.0031 W/m/K. The thermal conductivity (371.97 K, 4455 kPa) was 0.07787 ± 0.003 W/m/K, the thermal conductivity (371.97 K, 4460 kPa) was 0.07642 ± 0.0029 W/m/K and the thermal conductivity (371.97 K, 4465 kPa) was 0.07505 ± 0.0029 W/m/K. It also gave a thermal conductivity (371.97 K, 4475 kPa) of 0.07322 ± 0.0028 W/m/K, a thermal conductivity (371.97 K, 4490 kPa) of 0.07226 ± 0.0028 W/m/K and a thermal conductivity (371.97 K, 4500 kPa) of 0.07021 ± 0.0027 W/m/K. The thermal conductivity (371.97 K, 4505 kPa) was 0.06997 ± 0.0027 W/m/K, the thermal conductivity (371.97 K, 4530 kPa) was 0.06877 ± 0.0027 W/m/K and the thermal conductivity (371.97 K, 4550 kPa) was 0.06759 ± 0.0026 W/m/K. It also gave a thermal conductivity (371.97 K, 4570 kPa) of 0.06665 ± 0.0026 W/m/K, a thermal conductivity (371.97 K, 4650 kPa) of 0.06636 ± 0.0026 W/m/K and a thermal conductivity (371.97 K, 4740 kPa) of 0.06618 ± 0.0026 W/m/K. It also gave a thermal conductivity (371.97 K, 4850 kPa) of 0.06602 ± 0.0026 W/m/K, a thermal conductivity (371.97 K, 5200 kPa) of 0.06643 ± 0.0026 W/m/K and a thermal conductivity (371.97 K, 5900 kPa) of 0.06801 ± 0.0026 W/m/K. For the same molecule, the thermal conductivity (371.97 K, 6400 kPa) was 0.06923 ± 0.0027 W/m/K, the thermal conductivity (371.97 K, 6800 kPa) was 0.07002 ± 0.0027 W/m/K and the thermal conductivity (371.97 K, 7600 kPa) was 0.07152 ± 0.0027 W/m/K. For the same molecule, the thermal conductivity (371.97 K, 8810 kPa) was 0.07269 ± 0.0028 W/m/K, the thermal conductivity (371.97 K, 15100 kPa) was 0.08067 ± 0.0031 W/m/K and the thermal conductivity (373.2 K, 3103 kPa) was 0.03319 ± 0.0015 W/m/K. For the same molecule, the thermal conductivity (373.2 K, 3450 kPa) was 0.03488 ± 0.0016 W/m/K, the thermal conductivity (373.2 K, 3780 kPa) was 0.03746 ± 0.0017 W/m/K and the thermal conductivity (373.2 K, 3820 kPa) was 0.03788 ± 0.0017 W/m/K. It also gave a thermal conductivity (373.2 K, 4030 kPa) of 0.04085 ± 0.0018 W/m/K, a thermal conductivity (373.2 K, 4060 kPa) of 0.04149 ± 0.0018 W/m/K and a thermal conductivity (373.2 K, 4150 kPa) of 0.04361 ± 0.0019 W/m/K. For the same molecule, the thermal conductivity (373.2 K, 4230 kPa) was 0.04611 ± 0.0019 W/m/K, the thermal conductivity (373.2 K, 4270 kPa) was 0.04756 ± 0.002 W/m/K and the thermal conductivity (373.2 K, 4346 kPa) was 0.05156 ± 0.0021 W/m/K. It also gave a thermal conductivity (373.2 K, 4384 kPa) of 0.05498 ± 0.0023 W/m/K, a thermal conductivity (373.2 K, 4404 kPa) of 0.05788 ± 0.0026 W/m/K and a thermal conductivity (373.2 K, 4416 kPa) of 0.05996 ± 0.0026 W/m/K. For the same molecule, the thermal conductivity (373.2 K, 4428 kPa) was 0.0626 ± 0.0026 W/m/K, the thermal conductivity (373.2 K, 4436 kPa) was 0.06499 ± 0.0027 W/m/K and the thermal conductivity (373.2 K, 4444 kPa) was 0.06754 ± 0.0027 W/m/K. It also gave a thermal conductivity (373.2 K, 4450 kPa) of 0.06964 ± 0.0028 W/m/K, a thermal conductivity (373.2 K, 4452 kPa) of 0.07037 ± 0.0028 W/m/K and a thermal conductivity (373.2 K, 4462 kPa) of 0.07388 ± 0.0029 W/m/K. It also gave a thermal conductivity (373.2 K, 4466 kPa) of 0.07545 ± 0.0029 W/m/K, a thermal conductivity (373.2 K, 4470 kPa) of 0.07719 ± 0.003 W/m/K and a thermal conductivity (373.2 K, 4476 kPa) of 0.07958 ± 0.003 W/m/K. The thermal conductivity (373.2 K, 4482 kPa) was 0.08175 ± 0.0031 W/m/K, the thermal conductivity (373.2 K, 4484 kPa) was 0.0824 ± 0.0031 W/m/K and the thermal conductivity (373.2 K, 4486 kPa) was 0.08306 ± 0.0031 W/m/K. It also gave a thermal conductivity (373.2 K, 4494 kPa) of 0.08512 ± 0.0032 W/m/K, a thermal conductivity (373.2 K, 4496 kPa) of 0.08547 ± 0.0032 W/m/K and a thermal conductivity (373.2 K, 4498 kPa) of 0.08584 ± 0.0032 W/m/K. The thermal conductivity (373.2 K, 4500 kPa) was 0.0862 ± 0.0032 W/m/K, the thermal conductivity (373.2 K, 4502 kPa) was 0.08638 ± 0.0032 W/m/K and the thermal conductivity (373.2 K, 4504 kPa) was 0.08656 ± 0.0032 W/m/K. It also gave a thermal conductivity (373.2 K, 4506 kPa) of 0.08685 ± 0.0032 W/m/K, a thermal conductivity (373.2 K, 4508 kPa) of 0.08693 ± 0.0032 W/m/K and a thermal conductivity (373.2 K, 4510 kPa) of 0.0873 ± 0.0033 W/m/K. The thermal conductivity (373.2 K, 4518 kPa) was 0.08768 ± 0.0033 W/m/K, the thermal conductivity (373.2 K, 4524 kPa) was 0.08658 ± 0.0032 W/m/K and the thermal conductivity (373.2 K, 4530 kPa) was 0.08552 ± 0.0032 W/m/K. It also gave a thermal conductivity (373.2 K, 4536 kPa) of 0.08417 ± 0.0032 W/m/K, a thermal conductivity (373.2 K, 4544 kPa) of 0.08185 ± 0.0031 W/m/K and a thermal conductivity (373.2 K, 4550 kPa) of 0.07994 ± 0.003 W/m/K. It also gave a thermal conductivity (373.2 K, 4556 kPa) of 0.07815 ± 0.003 W/m/K, a thermal conductivity (373.2 K, 4564 kPa) of 0.07643 ± 0.0029 W/m/K and a thermal conductivity (373.2 K, 4568 kPa) of 0.07532 ± 0.0029 W/m/K.
